Measured values from US20150239889A1, “PYRAZOLOPYRIMIDINE COMPOUND” (MITSUBISHI TANABE PHARMA CORPORATION, priority 2012, published 2015).

Experiments:
[1] = molecular target: T1, human HIF-PHD2 (Homo sapiens, UniProt Q9GZT9); test: HIF-PHD inhibition assay (fluorescence polarization), human HIF-PHD2; assay type: biochemical; conditions: 2-oxoglutaric acid 3.33 μmol/L
T1 construct: purchased CrystalGenomics Ltd
Outline: (§1)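 Measured signal: mP difference, after versus before enzyme addition, representing enzyme activity. Detection relied on a FAM-tagged, ACA-spaced fluorescent probe.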

[2] = molecular target: T2, human HIF-PHD3 (Homo sapiens, UniProt Q9H6Z9); test: HIF-PHD inhibition assay (fluorescence polarization), human HIF-PHD3; assay type: biochemical; conditions: 2-oxoglutaric acid 166 μmol/L
T2 construct: purchased CrystalGenomics Ltd
Outline: as §1

[3] = system: Hep3B cells; test: EPO production assay (ELISA of culture supernatant); assay type: cell-based; conditions: Homo sapiens, 3 μmol/L test compound, 48 hours, relative to control (0.1% DMSO), read-out: EPO production stimulation rate with 3 μmol/L test compound
Description: The stimulatory effect of the compound onEPO production was determined as follows using Hep3B cells.
Cells were seeded on 96 well plates at 40000 cells/well, and the plate was incubated overnight in MEM medium containing 10% fetal bovine serum (FBS) at 37° C. under 5% CO2. The next day, the medium was replaced with MEM containing 0.5% FBS, followed by addition of test compound. The test compound was dissolved in dimethyl sulfoxide and added to the cell so that the final concentration of dimethyl sulfoxide was 0.1%. After incubation for additional 48 hours, the culture supernatant was collected, and EPO contained in the supernatant was determined using ELISA kit (EPO ELISA Kit 11-693-417-001, Roche Co.). The results were expressed as stimulation rate of EPO production (fold), which was calculated as the relative value of the EPO production with 3 μmol/L of the test compound compared to the EPO production without stimulation (control).
Stimulation rate of EPO production (fold)=(EPO production with addition of test compound)/(EPO production of control)

T1 sequence (Q9GZT9 2-426 limits assumed): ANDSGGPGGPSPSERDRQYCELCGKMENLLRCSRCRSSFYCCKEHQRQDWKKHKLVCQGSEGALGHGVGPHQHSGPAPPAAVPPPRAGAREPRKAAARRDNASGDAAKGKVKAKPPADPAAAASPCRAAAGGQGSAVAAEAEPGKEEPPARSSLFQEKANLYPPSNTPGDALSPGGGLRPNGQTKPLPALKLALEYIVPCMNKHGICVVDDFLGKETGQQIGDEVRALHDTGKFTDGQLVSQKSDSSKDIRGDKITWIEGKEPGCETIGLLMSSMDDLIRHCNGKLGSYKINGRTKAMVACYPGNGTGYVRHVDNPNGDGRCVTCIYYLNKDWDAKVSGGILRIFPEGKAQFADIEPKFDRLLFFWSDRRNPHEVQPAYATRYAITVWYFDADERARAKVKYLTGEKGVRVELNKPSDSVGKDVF
T2 sequence (Q9H6Z9 whole entry): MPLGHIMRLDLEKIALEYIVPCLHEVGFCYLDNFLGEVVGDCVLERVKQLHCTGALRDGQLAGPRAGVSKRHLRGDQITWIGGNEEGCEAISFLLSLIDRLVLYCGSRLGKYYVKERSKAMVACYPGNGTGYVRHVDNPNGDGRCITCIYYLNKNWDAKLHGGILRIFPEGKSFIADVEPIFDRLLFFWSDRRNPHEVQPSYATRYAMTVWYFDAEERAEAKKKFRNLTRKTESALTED

| SMILES | IC50 [1] [nM] | IC50 [2] [nM] | fold induction at 3 µM [3] |
| --- | --- | --- | --- |
| C[C@H](c1ccccc1)n1ncc2nc(-n3cc(C(=O)O)cn3)nc(O)c21 [Example 16] | 66 | 820 | 3.1 |
| C[C@@H](c1ccccc1)n1ncc2nc(-n3cc(C(=O)O)cn3)nc(O)c21 [Example 17] | 65 | 480 | 3.2 |
| C[C@@H](c1ccc(F)cc1)n1ncc2nc(-n3cc(C(=O)O)cn3)nc(O)c21 [Example 18] | 35 | 450 | 5.6 |
| C[C@@H](c1ccc(C(F)(F)F)cc1)n1ncc2nc(-n3cc(C(=O)O)cn3)nc(O)c21 [Example 19] | 26 | 720 | 10 |
| C[C@H](c1ccc(Cl)cc1)n1ncc2nc(-n3cc(C(=O)O)cn3)nc(O)c21 [Example 20] | 65 | 1200 | 5.5 |
| CC[C@@H](c1ccccc1)n1ncc2nc(-n3cc(C(=O)O)cn3)nc(O)c21 [Example 24] | 44 | 990 | 2.8 |
| Cc1ccc(C(C(C)C)n2ncc3nc(-n4cc(C(=O)O)cn4)nc(O)c32)cc1 (stereo not drawn) [Example 25] | 70 | 2900 | 2.9 |
| O=C(O)c1cnn(-c2nc(O)c3c(cnn3Cc3ccc4ccccc4c3)n2)c1 [Example 29] | 37 | 200 | 4.2 |
| C[C@H](c1ccc2ccccc2c1)n1ncc2nc(-n3cc(C(=O)O)cn3)nc(O)c21 [Example 30] | 72 | 460 | 5.5 |
| O=C(O)c1cnn(-c2nc(O)c3c(cnn3Cc3ccc(C4CCCCC4)cc3)n2)c1 [Example 37] | 26 | 120 | 8.3 |
| O=C(O)c1cnn(-c2nc(O)c3c(cnn3Cc3ccccc3-c3ccccc3)n2)c1 [Example 38] | 150 | 1800 | 2.9 |
| O=C(O)c1cnn(-c2nc(O)c3c(cnn3Cc3cccc(-c4ccccc4)c3)n2)c1 [Example 39] | 25 | 350 | 5 |
| O=C(O)c1cnn(-c2nc(O)c3c(cnn3Cc3cccc(-c4ccc(C(F)(F)F)cc4)c3)n2)c1 [Example 41] | 22 | 340 | 9.5 |
| O=C(O)c1cnn(-c2nc(O)c3c(cnn3Cc3cccc(-c4cccc(F)c4)c3)n2)c1 [Example 44] | 49 | 390 | 4.9 |
| O=C(O)c1cnn(-c2nc(O)c3c(cnn3Cc3cccc(-c4cccc(C(F)(F)F)c4)c3)n2)c1 [Example 45] | 50 | 170 | 8.9 |
| O=C(O)c1cnn(-c2nc(O)c3c(cnn3Cc3cccc(-c4ccccc4F)c3)n2)c1 [Example 46] | 68 | 85 | 3.7 |
| O=C(O)c1cnn(-c2nc(O)c3c(cnn3Cc3cccc(-c4ccccc4C(F)(F)F)c3)n2)c1 [Example 47] | 77 | 650 | 4.4 |
| Cc1cccc(C)c1-c1cccc(Cn2ncc3nc(-n4cc(C(=O)O)cn4)nc(O)c32)c1 [Example 48] | 70 | 340 | 6.6 |
| O=C(O)c1cnn(-c2nc(O)c3c(cnn3Cc3cc(-c4ccccc4)ccc3F)n2)c1 [Example 49] | 30 | 200 | 7.6 |
| O=C(O)c1cnn(-c2nc(O)c3c(cnn3Cc3cc(F)cc(-c4ccccc4)c3)n2)c1 [Example 50] | 51 | 320 | 6.3 |
| O=C(O)c1cnn(-c2nc(O)c3c(cnn3Cc3ccc(F)c(-c4ccccc4)c3)n2)c1 [Example 51] | 34 | 190 | 3.9 |
| O=C(O)c1cnn(-c2nc(O)c3c(cnn3Cc3cccc(-c4ccccc4)c3F)n2)c1 [Example 52] | 22 | 250 | 3.3 |
| Cc1ccc(Cn2ncc3nc(-n4cc(C(=O)O)cn4)nc(O)c32)cc1-c1ccccc1 [Example 53] | 25 | 410 | 3.3 |
| CCc1ccccc1-c1ccc(Cn2ncc3nc(-n4cc(C(=O)O)cn4)nc(O)c32)cc1 [Example 58] | 21 | 65 | 9.3 |

Molecules with a lower IC50 [1], results first:

| IC50 [1] [nM] | IC50 [2] [nM] | SMILES | fold induction at 3 µM [3] |
| --- | --- | --- | --- |
| 20 | 2600 | O=C(O)c1cnn(-c2nc(O)c3c(cnn3C(c3ccc(Cl)cc3)c3ccc(Cl)cc3)n2)c1 [Example 27] | 26 |
| 18 | 250 | Cc1c(Cn2ncc3nc(-n4cc(C(=O)O)cn4)nc(O)c32)ccc2ccccc12 [Example 35] | 5.7 |
| 18 | 250 | C[C@@H](c1cccc(-c2ccccc2)c1)n1ncc2nc(-n3cc(C(=O)O)cn3)nc(O)c21 [Example 54] | 5.6 |
| 17 | 520 | C[C@@H](c1ccc(Cl)cc1)n1ncc2nc(-n3cc(C(=O)O)cn3)nc(O)c21 [Example 21] | 7.5 |
| 17 | 240 | O=C(O)c1cnn(-c2nc(O)c3c(cnn3Cc3ccc4ccccc4c3F)n2)c1 [Example 34] | 1.2 |
| 17 | 140 | O=C(O)c1cnn(-c2nc(O)c3c(cnn3Cc3ccc(-c4ccccc4Cl)cc3)n2)c1 [Example 62] | 12 |
| 16 | 260 | O=C(O)c1cnn(-c2nc(O)c3c(cnn3Cc3ccc(-c4ccccc4F)cc3)n2)c1 [Example 56] | 19 |
| 15 | 170 | O=C(O)c1cnn(-c2nc(O)c3c(cnn3Cc3ccc4c(c3)CCCC4)n2)c1 [Example 36] | 1.4 |
| 15 | 200 | O=C(O)c1cnn(-c2nc(O)c3c(cnn3Cc3cccc(-c4ccc(OC(F)(F)F)cc4)c3)n2)c1 [Example 43] | 6.5 |
| 15 | 130 | Cc1ccccc1-c1ccc(Cn2ncc3nc(-n4cc(C(=O)O)cn4)nc(O)c32)cc1 [Example 57] | 9.1 |
| 14 | 320 | O=C(O)c1cnn(-c2nc(O)c3c(cnn3Cc3ccc4cc(F)ccc4c3)n2)c1 [Example 32] | 5.7 |
| 14 | 1400 | COc1ccc(-c2cccc(Cn3ncc4nc(-n5cc(C(=O)O)cn5)nc(O)c43)c2)cc1 [Example 42] | 9.1 |
| 14 | 110 | O=C(O)c1cnn(-c2nc(O)c3c(cnn3Cc3ccc(-c4cccc(F)c4)cc3)n2)c1 [Example 63] | 18 |
| 13 | 270 | C[C@@H](c1ccc2ccccc2c1)n1ncc2nc(-n3cc(C(=O)O)cn3)nc(O)c21 [Example 31] | 4.7 |
| 12 | 180 | O=C(O)c1cnn(-c2nc(O)c3c(cnn3Cc3ccc(-c4ccccc4C(F)(F)F)cc3)n2)c1 [Example 61] | 6 |
| 11 | 140 | O=C(O)c1cnn(-c2nc(O)c3c(cnn3Cc3cccc(-c4ccc(F)cc4)c3)n2)c1 [Example 40] | 5 |
